Where two headings read alike, the source gives them in different places.
Experiments:
[1] = spray table water, initial pH 6.3, 60° F
Protocol: Water samples were taken from the spray table of a sugar beet factory. […] The hydrogen peroxide concentration was measured periodically over a 60 minute period. The oxidation-reduction potential (ORP) was measured over the same period.

[2] = flume return (clarifier inlet) water, initial pH 6.4, 62° F
Protocol: Water samples were taken from the flume return (clarifier inlet) in a sugar beet factory. […] The hydrogen peroxide concentration was measured periodically over a 60 minute period. The oxidation-reduction potential (ORP) was measured over the same period.

[3] = initial dose 60 ppm, time 5 min
[4] = initial dose 60 ppm, time 30 min
[5] = initial dose 60 ppm, time 45 min
[6] = initial dose 60 ppm, time 60 min
[7] = initial dose 120 ppm, time 5 min
[8] = initial dose 120 ppm, time 30 min
[9] = initial dose 120 ppm, time 45 min
[10] = initial dose 120 ppm, time 60 min
[11] = initial dose 180 ppm, time 5 min
[12] = initial dose 180 ppm, time 30 min
[13] = initial dose 180 ppm, time 45 min
[14] = initial dose 180 ppm, time 60 min

For `OO` [H2O2, hydrogen peroxide], which H2O2 concentration [1, 3] is on record?
The H2O2 concentration was 50 ppm.

And the H2O2 concentration [1, 4]?
Its H2O2 concentration is 5 ppm.

What about the H2O2 concentration [1, 5] of the same compound?
Its H2O2 concentration is 0.5 ppm.

What about the H2O2 concentration [1, 6] of the same compound?
The H2O2 concentration was less than 0.5 ppm.

What about the H2O2 concentration [1, 7] of the same compound?
Its H2O2 concentration is greater than 100 ppm.

What about the H2O2 concentration [1, 8] of the same compound?
Its H2O2 concentration is 15 ppm.

And the H2O2 concentration [1, 9]?
Its H2O2 concentration is 2 ppm.

And the H2O2 concentration [1, 10]?
The H2O2 concentration was 1 ppm.

And the H2O2 concentration [1, 11]?
The H2O2 concentration was greater than 100 ppm.

What about the H2O2 concentration [1, 12] of the same compound?
The H2O2 concentration was 25 ppm.

And the H2O2 concentration [1, 13]?
The H2O2 concentration was 5 ppm.

What about the H2O2 concentration [1, 14] of the same compound?
The H2O2 concentration was 3 ppm.

And the H2O2 concentration [2, 3]?
The H2O2 concentration was 50 ppm.

And the H2O2 concentration [2, 4]?
The H2O2 concentration was 3 ppm.

What about the H2O2 concentration [2, 5] of the same compound?
The H2O2 concentration was 0.5 ppm.

And the H2O2 concentration [2, 6]?
Its H2O2 concentration is 0 ppm.

And the H2O2 concentration [2, 7]?
The H2O2 concentration was greater than 100 ppm.

What about the H2O2 concentration [2, 8] of the same compound?
The H2O2 concentration was 10 ppm.

What about the H2O2 concentration [2, 9] of the same compound?
Its H2O2 concentration is 3 ppm.

What about the H2O2 concentration [2, 10] of the same compound?
The H2O2 concentration was less than 0.5 ppm.

And the H2O2 concentration [2, 11]?
The H2O2 concentration was greater than 100 ppm.

And the H2O2 concentration [2, 12]?
Its H2O2 concentration is 25 ppm.

What about the H2O2 concentration [2, 13] of the same compound?
The H2O2 concentration was 5 ppm.

What about the H2O2 concentration [2, 14] of the same compound?
The H2O2 concentration was 1 ppm.

From patent US11332395B2, “Sanitary food washing stage in food production” (CHEMTREAT, INC., priority 2019, dated 2022)
